Earlier results on 1 substance are cited in US4127524A, “Novel dodecapeptides, intermediates therefor, and compositions and methods employing said dodecapeptides” (priority 1977, dated 1978).

The subject of series [1] is partially purified brain opiate receptor sites.
A further series has as its system rat. The note with it: injected directly into the brain of the rat.

As to “H-Tyr-Gly-Gly-Phe-Met-OH [methionine enkephalin]”, the “binding to partially purified brain opiate receptor sites” value in series [1] is “binds stereo-specifically”. Besides, the analgesic activity result in the series on rat was “only weak analgesic agent of short duration”.
